pIC50: −log10 of the molar value.
Target: Cyclin-dependent kinase 2 (Homo sapiens, UniProt P24941)
Experiment: Inhibition of CDK2/Cyclin A
Settings: for pIC50: read-out: IC50; for IC50: read-out: pIC50 (converted)

SMILES | pIC50 | IC50
O=C(Nc1cc(-c2ccccc2)[nH]n1)c1ccc(Br)cc1 | < 5.00 | –
CCCC(=O)Nc1cc(C)[nH]n1 | < 5.00 | –
CC(C)(C)c1cc(NC(=O)c2ccc(Br)cc2)n[nH]1 | < 5.00 | –
O=C(Nc1cc(C2CCCCC2)[nH]n1)c1ccc(Br)cc1 | 5.00 | –
CO[C@@H](C(=O)Nc1cc(C2CC2)n[nH]1)c1ccccc1 | < 5.00 | –
O=C(Nc1cc(Cc2ccccc2)[nH]n1)c1ccc(Br)cc1 | < 5.00 | –
O=C(Cc1ccc(-c2ccccc2)c(F)c1)Nc1cc(C2CC2)n[nH]1 | 8.40 | 4 nM
O=C(Cc1ccc(Cc2cccs2)cc1)Nc1cc(C2CC2)n[nH]1 | 8.52 | 3 nM

The next lines start with the values.

pIC50 | IC50 | SMILES
5.00 | – | O=C(Nc1cc(C2CC2)[nH]n1)c1ccccc1Cl
< 5.00 | – | COc1ccccc1C(=O)Nc1cc(C2CC2)[nH]n1
< 5.00 | – | O=C(Nc1cc(C2CC2)[nH]n1)c1c(Cl)cccc1Cl
8.05 | 8.99 nM | Cc1cc(CC(=O)Nc2cc(C3CC3)[nH]n2)ccc1-c1ccccc1

Source: ChEMBL document CHEMBL1140962, “An efficient tool for identifying inhibitors based on 3D-QSAR and docking using feature-shape pharmacophore of biologically active conformation--a case study with CDK2/cyclinA” (Eur J Med Chem, 2008)
